According to patent publication US20230017045A1, “PYRIDINE AND PYRIMIDINE CARBOXYLATE HERBICIDES AND METHODS OF USE THEREOF” (Dow AgroSciences LLC, priority 2017, published 2023):

System: test plant species
Experiment: Post-emergent herbicidal activity test (greenhouse, foliar spray, visual growth reduction)
Format: in vivo
Details: post-emergence, 336 h, ECHCG: barnyardgrass (Echinochloa crus-galli), 140 g ai/ha, 14 days after application, read-out: Visual Growth Reduction (%) 14 Days After Application, ECHCG
In short: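 Visual scoring 14 d after treatment (0 = no injury, 100 = complete control) against nontreated and solvent-blank plants gave percent growth reduction. Foliar application used a track sprayer delivering 187 L/ha to seedlings at first or second true leaf stage, grown at 23–29 °C day, ~15 h photoperiod.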

Compound	pest or weed control at 140 g/ha
COC(=O)c1nc(-c2ccc3c(c2F)OC(F)(F)O3)c(F)cc1Cl [F229, Methyl 3-chloro-5-fluoro-6-(2,2,4-trifluorobenzo[d][1,3]dioxol-5-yl)picolinate]	85 to 94%
COC(=O)c1nc(-c2cc3nonc3cc2F)c(Cl)cc1Cl [F327, Methyl 3,5-dichloro-6-(6-fluorobenzo[c][1,2,5]oxadiazol-5-yl)picolinate]	0 to 29%
COC(=O)c1nc(-c2cc(N)c(C(F)(F)F)cc2Cl)ccc1Cl [F211, methyl 6-(5-amino-2-chloro-4-(trifluoromethyl)phenyl)-3-chloropicolinate]	60 to 74%

Same assay, conditions: post-emergence, 336 h, IPOHE: ivy-leaf morning glory (Ipomoea hederacea), 140 g ai/ha, 14 days after application, read-out: Visual Growth Reduction (%) 14 Days After Application, IPOHE

Compound	pest or weed control at 140 g/ha
COC(=O)c1nc(-c2ccc3c(c2F)OC(F)(F)O3)c(F)cc1Cl [F229, Methyl 3-chloro-5-fluoro-6-(2,2,4-trifluorobenzo[d][1,3]dioxol-5-yl)picolinate]	95 to 100%
COC(=O)c1nc(-c2cc3nonc3cc2F)c(Cl)cc1Cl [F327, Methyl 3,5-dichloro-6-(6-fluorobenzo[c][1,2,5]oxadiazol-5-yl)picolinate]	75 to 84%
COC(=O)c1nc(-c2cc(N)c(C(F)(F)F)cc2Cl)ccc1Cl [F211, methyl 6-(5-amino-2-chloro-4-(trifluoromethyl)phenyl)-3-chloropicolinate]	95 to 100%

Same assay, conditions: post-emergence, 336 h, KCHSC: kochia (Bassia scoparia), 140 g ai/ha, 14 days after application, read-out: Visual Growth Reduction (%) 14 Days After Application, KCHSC

Compound	pest or weed control at 140 g/ha
COC(=O)c1nc(-c2ccc3c(c2F)OC(F)(F)O3)c(F)cc1Cl [F229, Methyl 3-chloro-5-fluoro-6-(2,2,4-trifluorobenzo[d][1,3]dioxol-5-yl)picolinate]	95 to 100%
COC(=O)c1nc(-c2cc3nonc3cc2F)c(Cl)cc1Cl [F327, Methyl 3,5-dichloro-6-(6-fluorobenzo[c][1,2,5]oxadiazol-5-yl)picolinate]	0 to 29%
COC(=O)c1nc(-c2cc(N)c(C(F)(F)F)cc2Cl)ccc1Cl [F211, methyl 6-(5-amino-2-chloro-4-(trifluoromethyl)phenyl)-3-chloropicolinate]	75 to 84%

Same assay, conditions: post-emergence, 336 h, ORYSA: rice (Oryza sativa), 140 g ai/ha, 14 days after application, read-out: Visual Growth Reduction (%) 14 Days After Application, ORYSA

Compound	pest or weed control at 140 g/ha
COC(=O)c1nc(-c2ccc3c(c2F)OC(F)(F)O3)c(F)cc1Cl [F229, Methyl 3-chloro-5-fluoro-6-(2,2,4-trifluorobenzo[d][1,3]dioxol-5-yl)picolinate]	0 to 29%
COC(=O)c1nc(-c2cc3nonc3cc2F)c(Cl)cc1Cl [F327, Methyl 3,5-dichloro-6-(6-fluorobenzo[c][1,2,5]oxadiazol-5-yl)picolinate]	0 to 29%
COC(=O)c1nc(-c2cc(N)c(C(F)(F)F)cc2Cl)ccc1Cl [F211, methyl 6-(5-amino-2-chloro-4-(trifluoromethyl)phenyl)-3-chloropicolinate]	0 to 29%

Same assay, conditions: post-emergence, 336 h, SETFA: giant foxtail (Setaria faberi), 140 g ai/ha, 14 days after application, read-out: Visual Growth Reduction (%) 14 Days After Application, SETFA

Compound	pest or weed control at 140 g/ha
COC(=O)c1nc(-c2ccc3c(c2F)OC(F)(F)O3)c(F)cc1Cl [F229, Methyl 3-chloro-5-fluoro-6-(2,2,4-trifluorobenzo[d][1,3]dioxol-5-yl)picolinate]	85 to 94%
COC(=O)c1nc(-c2cc3nonc3cc2F)c(Cl)cc1Cl [F327, Methyl 3,5-dichloro-6-(6-fluorobenzo[c][1,2,5]oxadiazol-5-yl)picolinate]	30 to 44%
COC(=O)c1nc(-c2cc(N)c(C(F)(F)F)cc2Cl)ccc1Cl [F211, methyl 6-(5-amino-2-chloro-4-(trifluoromethyl)phenyl)-3-chloropicolinate]	45 to 59%

Same assay, conditions: post-emergence, 336 h, SORVU: grain sorghum (Sorghum vulgare), 140 g ai/ha, 14 days after application, read-out: Visual Growth Reduction (%) 14 Days After Application, SORVU

Compound	pest or weed control at 140 g/ha
COC(=O)c1nc(-c2ccc3c(c2F)OC(F)(F)O3)c(F)cc1Cl [F229, Methyl 3-chloro-5-fluoro-6-(2,2,4-trifluorobenzo[d][1,3]dioxol-5-yl)picolinate]	95 to 100%
COC(=O)c1nc(-c2cc3nonc3cc2F)c(Cl)cc1Cl [F327, Methyl 3,5-dichloro-6-(6-fluorobenzo[c][1,2,5]oxadiazol-5-yl)picolinate]	0 to 29%
COC(=O)c1nc(-c2cc(N)c(C(F)(F)F)cc2Cl)ccc1Cl [F211, methyl 6-(5-amino-2-chloro-4-(trifluoromethyl)phenyl)-3-chloropicolinate]	60 to 74%

Same assay, conditions: post-emergence, 336 h, STEME: common chickweed (Stellaria media), 140 g ai/ha, 14 days after application, read-out: Visual Growth Reduction (%) 14 Days After Application, STEME

Compound	pest or weed control at 140 g/ha
COC(=O)c1nc(-c2ccc3c(c2F)OC(F)(F)O3)c(F)cc1Cl [F229, Methyl 3-chloro-5-fluoro-6-(2,2,4-trifluorobenzo[d][1,3]dioxol-5-yl)picolinate]	45 to 59%
COC(=O)c1nc(-c2cc3nonc3cc2F)c(Cl)cc1Cl [F327, Methyl 3,5-dichloro-6-(6-fluorobenzo[c][1,2,5]oxadiazol-5-yl)picolinate]	0 to 29%
COC(=O)c1nc(-c2cc(N)c(C(F)(F)F)cc2Cl)ccc1Cl [F211, methyl 6-(5-amino-2-chloro-4-(trifluoromethyl)phenyl)-3-chloropicolinate]	0 to 29%

Same assay, conditions: post-emergence, 336 h, TRZAS: wheat, spring (Triticum aestivum), 140 g ai/ha, 14 days after application, read-out: Visual Growth Reduction (%) 14 Days After Application, TRZAS

Compound	pest or weed control at 140 g/ha
COC(=O)c1nc(-c2ccc3c(c2F)OC(F)(F)O3)c(F)cc1Cl [F229, Methyl 3-chloro-5-fluoro-6-(2,2,4-trifluorobenzo[d][1,3]dioxol-5-yl)picolinate]	85 to 94%
COC(=O)c1nc(-c2cc3nonc3cc2F)c(Cl)cc1Cl [F327, Methyl 3,5-dichloro-6-(6-fluorobenzo[c][1,2,5]oxadiazol-5-yl)picolinate]	0 to 29%
COC(=O)c1nc(-c2cc(N)c(C(F)(F)F)cc2Cl)ccc1Cl [F211, methyl 6-(5-amino-2-chloro-4-(trifluoromethyl)phenyl)-3-chloropicolinate]	0 to 29%

Same assay, conditions: post-emergence, 336 h, blackgrass (Alopecurus myosuroides), 14 Days After Application, 140 g ai/ha, read-out: Visual Growth Reduction (%) ALOMY

Compound	pest or weed control at 140 g/ha
COC(=O)c1nc(-c2ccc3c(c2F)OC(F)(F)O3)c(F)cc1Cl [F229, Methyl 3-chloro-5-fluoro-6-(2,2,4-trifluorobenzo[d][1,3]dioxol-5-yl)picolinate]	85 to 94%
COC(=O)c1nc(-c2cc3nonc3cc2F)c(Cl)cc1Cl [F327, Methyl 3,5-dichloro-6-(6-fluorobenzo[c][1,2,5]oxadiazol-5-yl)picolinate]	0 to 29%
COC(=O)c1nc(-c2cc(N)c(C(F)(F)F)cc2Cl)ccc1Cl [F211, methyl 6-(5-amino-2-chloro-4-(trifluoromethyl)phenyl)-3-chloropicolinate]	0 to 29%

Same assay, conditions: post-emergence, 336 h, canada thistle (Cirsium arvense), 14 Days After Application, 140 g ai/ha, read-out: Visual Growth Reduction (%) CIRAR

Compound	pest or weed control at 140 g/ha
COC(=O)c1nc(-c2ccc3c(c2F)OC(F)(F)O3)c(F)cc1Cl [F229, Methyl 3-chloro-5-fluoro-6-(2,2,4-trifluorobenzo[d][1,3]dioxol-5-yl)picolinate]	95 to 100%
COC(=O)c1nc(-c2cc3nonc3cc2F)c(Cl)cc1Cl [F327, Methyl 3,5-dichloro-6-(6-fluorobenzo[c][1,2,5]oxadiazol-5-yl)picolinate]	0 to 29%
COC(=O)c1nc(-c2cc(N)c(C(F)(F)F)cc2Cl)ccc1Cl [F211, methyl 6-(5-amino-2-chloro-4-(trifluoromethyl)phenyl)-3-chloropicolinate]	85 to 94%

Same assay, conditions: post-emergence, 336 h, crabgrass (Digitaria sanguinalis), 14 Days After Application, 140 g ai/ha, read-out: Visual Growth Reduction (%) DIGSA

Compound	pest or weed control at 140 g/ha
COC(=O)c1nc(-c2ccc3c(c2F)OC(F)(F)O3)c(F)cc1Cl [F229, Methyl 3-chloro-5-fluoro-6-(2,2,4-trifluorobenzo[d][1,3]dioxol-5-yl)picolinate]	95 to 100%
COC(=O)c1nc(-c2cc3nonc3cc2F)c(Cl)cc1Cl [F327, Methyl 3,5-dichloro-6-(6-fluorobenzo[c][1,2,5]oxadiazol-5-yl)picolinate]	0 to 29%
COC(=O)c1nc(-c2cc(N)c(C(F)(F)F)cc2Cl)ccc1Cl [F211, methyl 6-(5-amino-2-chloro-4-(trifluoromethyl)phenyl)-3-chloropicolinate]	30 to 44%

Same assay, conditions: post-emergence, 336 h, lambsquarters (Chenopodium album), 14 Days After Application, 140 g ai/ha, read-out: Visual Growth Reduction (%) CHEAL

Compound	pest or weed control at 140 g/ha
COC(=O)c1nc(-c2ccc3c(c2F)OC(F)(F)O3)c(F)cc1Cl [F229, Methyl 3-chloro-5-fluoro-6-(2,2,4-trifluorobenzo[d][1,3]dioxol-5-yl)picolinate]	95 to 100%
COC(=O)c1nc(-c2cc3nonc3cc2F)c(Cl)cc1Cl [F327, Methyl 3,5-dichloro-6-(6-fluorobenzo[c][1,2,5]oxadiazol-5-yl)picolinate]	30 to 44%
COC(=O)c1nc(-c2cc(N)c(C(F)(F)F)cc2Cl)ccc1Cl [F211, methyl 6-(5-amino-2-chloro-4-(trifluoromethyl)phenyl)-3-chloropicolinate]	95 to 100%

Same assay, conditions: post-emergence, 336 h, redroot pigweed (Amaranthus retroflexus), 14 Days After Application, 140 g ai/ha, read-out: Visual Growth Reduction (%) AMARE

Compound	pest or weed control at 140 g/ha
COC(=O)c1nc(-c2ccc3c(c2F)OC(F)(F)O3)c(F)cc1Cl [F229, Methyl 3-chloro-5-fluoro-6-(2,2,4-trifluorobenzo[d][1,3]dioxol-5-yl)picolinate]	95 to 100%
COC(=O)c1nc(-c2cc3nonc3cc2F)c(Cl)cc1Cl [F327, Methyl 3,5-dichloro-6-(6-fluorobenzo[c][1,2,5]oxadiazol-5-yl)picolinate]	30 to 44%
COC(=O)c1nc(-c2cc(N)c(C(F)(F)F)cc2Cl)ccc1Cl [F211, methyl 6-(5-amino-2-chloro-4-(trifluoromethyl)phenyl)-3-chloropicolinate]	85 to 94%

Same assay, conditions: post-emergence, 336 h, wild oat (Avena fatua), 14 Days After Application, 140 g ai/ha, read-out: Visual Growth Reduction (%) AVEFA

Compound	pest or weed control at 140 g/ha
COC(=O)c1nc(-c2ccc3c(c2F)OC(F)(F)O3)c(F)cc1Cl [F229, Methyl 3-chloro-5-fluoro-6-(2,2,4-trifluorobenzo[d][1,3]dioxol-5-yl)picolinate]	95 to 100%
COC(=O)c1nc(-c2cc3nonc3cc2F)c(Cl)cc1Cl [F327, Methyl 3,5-dichloro-6-(6-fluorobenzo[c][1,2,5]oxadiazol-5-yl)picolinate]	0 to 29%
COC(=O)c1nc(-c2cc(N)c(C(F)(F)F)cc2Cl)ccc1Cl [F211, methyl 6-(5-amino-2-chloro-4-(trifluoromethyl)phenyl)-3-chloropicolinate]	0 to 29%

Same assay, conditions: post-emergence, 336 h, yellow nutsedge (Cyperus esculentus), 14 Days After Application, 140 g ai/ha, read-out: Visual Growth Reduction (%) CYPES

Compound	pest or weed control at 140 g/ha
COC(=O)c1nc(-c2ccc3c(c2F)OC(F)(F)O3)c(F)cc1Cl [F229, Methyl 3-chloro-5-fluoro-6-(2,2,4-trifluorobenzo[d][1,3]dioxol-5-yl)picolinate]	45 to 59%
COC(=O)c1nc(-c2cc3nonc3cc2F)c(Cl)cc1Cl [F327, Methyl 3,5-dichloro-6-(6-fluorobenzo[c][1,2,5]oxadiazol-5-yl)picolinate]	0 to 29%
COC(=O)c1nc(-c2cc(N)c(C(F)(F)F)cc2Cl)ccc1Cl [F211, methyl 6-(5-amino-2-chloro-4-(trifluoromethyl)phenyl)-3-chloropicolinate]	0 to 29%
